Data set [1] deals with Mus musculus. Nature of the data set: Anticonvulsant activity in Swiss albino Mus musculus (mouse) assessed as protection against maximal electroshock-induced seizures at 40 mg/kg, ip after 3 hr. The class given is functional, organism-based. Further details: dose 40 mg/kg. In general terms: In the maximal electroshock model the usual endpoint is tonic extension of the hind limbs.

The subject of data set [2] is Mus musculus. The data set is described as follows: Anticonvulsant activity in Swiss albino Mus musculus (mouse) assessed as protection against subcutaneous pentylenetetrazol-induced seizures at 40 mg/kg, ip after 4 hr. The class given is functional, organism-based. Further details: dose 40 mg/kg.
Data set [3] concerns Mus musculus. The data set is described as follows: Anticonvulsant activity in Swiss albino Mus musculus (mouse) assessed as protection against maximal electroshock-induced seizures at 20 mg/kg, ip after 3 hr. The class given is functional, organism-based. Further details: dose 20 mg/kg.
For data set [4], the system named is Mus musculus. Nature of the data set: Anticonvulsant activity in Swiss albino Mus musculus (mouse) assessed as protection against maximal electroshock-induced seizures at 10 mg/kg, ip after 4 hr. The class given is functional, organism-based. Further details: dose 10 mg/kg.
The subject of data set [5] is Mus musculus. The data set is described as follows: Anticonvulsant activity in Swiss albino Mus musculus (mouse) assessed as protection against maximal electroshock-induced seizures at 20 mg/kg, ip after 1 hr. The class given is functional, organism-based. Set-up: dose 20 mg/kg.
In data set [6] the test system is Mus musculus. The data set is described as follows: Anticonvulsant activity in Swiss albino Mus musculus (mouse) assessed as protection against subcutaneous pentylenetetrazol-induced seizures at 40 mg/kg, ip after 0.5 hr. The class given is functional, organism-based. Further details: dose 40 mg/kg.
The test system of data set [7] is Mus musculus. The data set is described as follows: Anticonvulsant activity in Swiss albino Mus musculus (mouse) assessed as protection against maximal electroshock-induced seizures at 40 mg/kg, ip after 1 hr. The class given is functional, organism-based. Set-up: dose 40 mg/kg.
Data set [8] has as its system Mus musculus. Nature of the data set: Anticonvulsant activity in Swiss albino Mus musculus (mouse) assessed as protection against subcutaneous pentylenetetrazol-induced seizures at 20 mg/kg, ip after 0.5 hr. The class given is functional, organism-based. Set-up: dose 20 mg/kg.
The subject of data set [9] is Mus musculus. Nature of the data set: Anticonvulsant activity in Swiss albino Mus musculus (mouse) assessed as protection against maximal electroshock-induced seizures at 10 mg/kg, ip after 2 hr. The class given is functional, organism-based. Set-up: dose 10 mg/kg.
Data set [10] deals with Mus musculus. Nature of the data set: Anticonvulsant activity in Swiss albino Mus musculus (mouse) assessed as protection against maximal electroshock-induced seizures at 20 mg/kg, ip after 4 hr. The class given is functional, organism-based. Set-up: dose 20 mg/kg.
The subject of data set [11] is Mus musculus. Nature of the data set: Anticonvulsant activity in Swiss albino Mus musculus (mouse) assessed as protection against maximal electroshock-induced seizures at 10 mg/kg, ip after 1 hr. The class given is functional, organism-based. Further details: dose 10 mg/kg.
Data set [12] concerns Mus musculus. Nature of the data set: Anticonvulsant activity in Swiss albino Mus musculus (mouse) assessed as protection against subcutaneous pentylenetetrazol-induced seizures at 20 mg/kg, ip after 4 hr. The class given is functional, organism-based. Set-up: dose 20 mg/kg.
Data set [13] relates to Mus musculus. The data set is described as follows: Anticonvulsant activity in Swiss albino Mus musculus (mouse) assessed as protection against maximal electroshock-induced seizures at 40 mg/kg, ip after 4 hr. Set-up: dose 40 mg/kg. The class given is functional, organism-based.
Data set [14] has as its system Mus musculus. The data set is described as follows: Anticonvulsant activity in Swiss albino Mus musculus (mouse) assessed as protection against maximal electroshock-induced seizures at 20 mg/kg, ip after 2 hr. The class given is functional, organism-based. Set-up: dose 20 mg/kg.
In data set [15] the test system is Mus musculus. The data set is described as follows: Anticonvulsant activity in Swiss albino Mus musculus (mouse) assessed as protection against maximal electroshock-induced seizures at 40 mg/kg, ip after 2 hr. Set-up: dose 40 mg/kg. The class given is functional, organism-based.
Data set [16] relates to Mus musculus. Nature of the data set: Anticonvulsant activity in Swiss albino Mus musculus (mouse) assessed as protection against maximal electroshock-induced seizures at 10 mg/kg, ip after 3 hr. The class given is functional, organism-based. Further details: dose 10 mg/kg.
Data set [17] has as its system Mus musculus. The data set is described as follows: Neurotoxicity in Swiss albino Mus musculus (mouse) assessed as minimal motor impairment at 30 mg/kg, ip after 4 hr. The class given is toxicity, organism-based. Set-up: dose 30 mg/kg, route intraperitoneal. The conditions noted are these: in vivo.
Data set [18] deals with Mus musculus. The data set is described as follows: Anticonvulsant activity in Swiss albino Mus musculus (mouse) assessed as protection against subcutaneous pentylenetetrazol-induced seizures at 10 mg/kg, ip after 4 hr. The class given is functional, organism-based. Further details: dose 10 mg/kg.
Data set [19] concerns Mus musculus. Nature of the data set: Anticonvulsant activity in Swiss albino Mus musculus (mouse) assessed as protection against subcutaneous pentylenetetrazol-induced seizures at 10 mg/kg, ip after 0.5 hr. The class given is functional, organism-based. Further details: dose 10 mg/kg.
In data set [20] the test system is Mus musculus. The data set is described as follows: Anticonvulsant activity in Swiss albino Mus musculus (mouse) assessed as protection against subcutaneous pentylenetetrazol-induced seizures at 5 mg/kg, ip after 0.5 hr. The class given is functional, organism-based. Set-up: dose 5 mg/kg.
Data set [21] concerns Mus musculus. The data set is described as follows: Anticonvulsant activity in Swiss albino Mus musculus (mouse) assessed as protection against maximal electroshock-induced seizures at 5 mg/kg, ip after 3 hr. The class given is functional, organism-based. Set-up: dose 5 mg/kg.
The subject of data set [22] is Mus musculus. The data set is described as follows: Anticonvulsant activity in Swiss albino Mus musculus (mouse) assessed as protection against maximal electroshock-induced seizures at 5 mg/kg, ip after 1 hr. The class given is functional, organism-based. Further details: dose 5 mg/kg.

Active and inactive are the calls of the source. No cut-off for these calls is given here.

`CCCC(=O)NC1=CC(=O)C(=O)c2ccccc21`: the result in the data set on Mus musculus [1], in the data set with Mus musculus [2], in the data set with Mus musculus [3], with Mus musculus [5], in the data set on Mus musculus [6] and in the data set with Mus musculus [7] was Active. The result with Mus musculus [8] was Active. The outcome with Mus musculus [4] was inactive.

Take `CC(C)C(=O)NC1=CC(=O)C(=O)c2ccccc21`: the outcome in the data set with Mus musculus [5], in the data set with Mus musculus [6] and in the data set on Mus musculus [7] was Active.

On to `CC(=O)Nc1ccc(C(=O)NC2=CC(=O)C(=O)c3ccccc32)cc1`, for which the result in the data set on Mus musculus [2], with Mus musculus [9], with Mus musculus [10], with Mus musculus [11], in the data set on Mus musculus [13] and in the data set on Mus musculus [5] was Active. Moreover, the result in the data set on Mus musculus [14], in the data set with Mus musculus [15], with Mus musculus [6], in the data set with Mus musculus [7] and in the data set with Mus musculus [8] was Active. The result in the data set with Mus musculus [12] was inactive.

For the molecule `CC(C)CC(=O)NC1=CC(=O)C(=O)c2ccccc21`, the result with Mus musculus [1], with Mus musculus [16], with Mus musculus [3], in the data set on Mus musculus [5], in the data set with Mus musculus [6] and in the data set on Mus musculus [7] was Active. Moreover, the outcome in the data set on Mus musculus [8] was Active.

Turning to `CCC(=O)NC1=CC(=O)C(=O)c2ccccc21`, the Activity result in the data set on Mus musculus [17] is recorded as “Non-toxic”. In addition, the result in the data set on Mus musculus [10], in the data set with Mus musculus [12], with Mus musculus [4] and in the data set with Mus musculus [18] was inactive. Also, the outcome in the data set on Mus musculus [5] was Active.

Take `O=C1C=C(NC(=O)c2ccccc2)c2ccccc2C1=O`: the outcome in the data set on Mus musculus [9], with Mus musculus [10], in the data set with Mus musculus [4], with Mus musculus [19] and with Mus musculus [18] was inactive.

As for `CC(=O)NCC(=O)NC1=CC(=O)C(=O)c2ccccc21`, the result in the data set with Mus musculus [1], in the data set on Mus musculus [13] and in the data set on Mus musculus [18] was inactive. Also, the result in the data set with Mus musculus [3] and with Mus musculus [11] was Active.

In the case of `CC(=O)NC1=CC(=O)C(=O)c2ccccc21`, the outcome in the data set on Mus musculus [16], with Mus musculus [10], in the data set on Mus musculus [12], in the data set on Mus musculus [4], with Mus musculus [13] and in the data set on Mus musculus [18] was inactive. In addition, the result in the data set on Mus musculus [5] and in the data set with Mus musculus [7] was Active.

Turning to `CCCCCC(=O)NC1=CC(=O)C(=O)c2ccccc21`, the outcome in the data set on Mus musculus [2], with Mus musculus [9], in the data set with Mus musculus [11], with Mus musculus [13], in the data set on Mus musculus [5] and in the data set on Mus musculus [14] was Active. In addition, the outcome in the data set on Mus musculus [6] and in the data set with Mus musculus [8] was Active.

Turning to `O=C1NC(=O)C(c2ccccc2)(c2ccccc2)N1`, the result in the data set with Mus musculus [20], with Mus musculus [21] and in the data set on Mus musculus [22] was Active.

For `O=C1C=C(NC(=O)c2cccnc2)c2ccccc2C1=O`, the result in the data set on Mus musculus [9], in the data set with Mus musculus [10] and in the data set with Mus musculus [4] was inactive.
